Experimental data published in patent US8952024B2, “Herbicidal pyrimidone derivatives” (E I du Pont de Nemours and Company, priority 2009, dated 2015).

Tests used:
Type in all cases: in vivo
[1] = test system: morningglory (Ipomoea spp.); test: Test A pre-/postemergence plant response
Method in brief: (§1)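 Both pre- and postemergence treatments are applied simultaneously, using chemicals formulated in a non-phytotoxic solvent mixture with surfactant. Postemergence plants are 2–10 cm high with one to two leaves. After approximately ten days in a greenhouse, injury is scored visually from 0 (none) to 100 (complete control) relative to untreated plants.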

[2] = test system: pigweed (Amaranthus retroflexus); test: Test A pre-/postemergence plant response
Method in brief: as §1

[3] = test system: large crabgrass (Digitaria sanguinalis); test: Test A pre-/postemergence plant response
Method in brief: as §1

[4] = test system: barnyardgrass (Echinochloa crus-galli); test: Test A pre-/postemergence plant response
Method in brief: as §1

[5] = test system: giant foxtail (Setaria faberii); test: Test A pre-/postemergence plant response
Method in brief: as §1

[6] = test system: velvetleaf (Abutilon theophrasti); test: Test A pre-/postemergence plant response
Method in brief: as §1

[7] = test system: wheat (Triticum aestivum); test: Test A pre-/postemergence plant response
Method in brief: as §1

corn (Zea mays) = test: Test A pre-/postemergence plant response
Method in brief: as §1

[8] = test system: canarygrass (Phalaris minor); test: Test B postemergence plant response; details: for Canarygrass plant response rating (0 to 100 scale): 62 g ai/ha, 0 is no effect, 13 to 15 days
Method in brief: (§2)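 Plants at the 1- to 4-leaf stage (2 to 18 cm tall), grown in pots of peat moss/vermiculite medium with wetting agent and starter nutrients, received postemergence applications of test chemicals. After 13 to 15 days in a greenhouse, injury was rated visually against untreated controls on a 0 (no effect) to 100 (complete control) scale.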

[9] = test system: windgrass (Apera spica-venti); test: Test B postemergence plant response; details: for Windgrass plant response rating (0 to 100 scale): 62 g ai/ha, 0 is no effect, 13 to 15 days
Method in brief: as §2

[10] = test system: winter barley (Hordeum vulgare); test: Test B postemergence plant response; details: for Barley plant response rating (0 to 100 scale): 62 g ai/ha, 0 is no effect, 13 to 15 days
Method in brief: as §2

[11] = test system: chickweed (Stellaria media); test: Test B postemergence plant response; details: for Chickweed plant response rating (0 to 100 scale): 62 g ai/ha, 0 is no effect, 13 to 15 days
Method in brief: as §2

[12] = Postemergence, 125 g ai/ha, visual injury, 0 to 100 scale (0 no effect, 100 complete control), approx. ten days
[13] = Postemergence, 500 g ai/ha, 0 to 100 scale, 0 = no effect, 100 = complete control, approx. ten days
[14] = Preemergence, 125 g ai/ha, 0 to 100 scale, 0 = no effect, 100 = complete control
[15] = Preemergence, 500 g ai/ha, visual injury, 0 to 100 scale (0 no effect, 100 complete control), approx. ten days
[16] = 31 g ai/ha, postemergence, scale 0 to 100, 0 is no effect, 100 is complete control
[17] = postemergence, 100 is complete control
[18] = Postemergence, 125 g ai/ha, visual rating after 13 to 15 days, scale 0 (no effect) to 100 (complete control)
[19] = Postemergence, 250 g ai/ha, scale 0 to 100 (0 no effect, 100 complete control)

CCCCc1ncc(C(=O)C2=C(O)CCCC2=O)c(=O)n1-c1ccc(C)cc1 [Compound 67]
90: Plant response rating, Pigweed [2, 14] | Plant response rating, Pigweed [2, 15] | Plant response rating, Crabgrass, Large [3, 13] | Plant response rating, Crabgrass, Large [3, 15] | Plant response rating, Barnyardgrass [4, 13] | Plant response rating, Chickweed [11, 16]
5: Plant response rating, Canarygrass [8, 19] | Plant response rating, Windgrass [9, 18] | Plant response rating, Windgrass [9, 19] | Barley plant response rating (0 to 100 scale) [10, 17]
100: Morningglory plant response rating [1, 12] | Plant response rating, Morningglory [1, 13] | Pigweed plant response rating [2, 12] | Plant response rating, Pigweed [2, 13] | Velvetleaf plant response rating [6, 12] | Plant response rating, Velvetleaf [6, 13] | Plant response rating, Chickweed [11, 19]
50: Plant response rating, Morningglory [1, 15] | Plant response rating, Foxtail, Giant [5, 15]
10: Plant response rating, Corn (corn (Zea mays); [13])
40: Plant response rating, Barnyardgrass [4, 15]
60: Crabgrass, Large plant response rating [3, 12] | Plant response rating, Foxtail, Giant [5, 13]
20: Wheat plant response rating [7, 12] | Plant response rating, Barley [10, 18]
95: Chickweed plant response rating (0 to 100 scale) [11, 17] | Plant response rating, Chickweed [11, 18]
80: Plant response rating, Velvetleaf [6, 15]
30: Plant response rating, Morningglory [1, 14] | Plant response rating, Crabgrass, Large [3, 14] | Foxtail, Giant plant response rating [5, 12] | Plant response rating, Wheat [7, 13] | Plant response rating, Barley [10, 19]
70: Barnyardgrass plant response rating [4, 12] | Plant response rating, Velvetleaf [6, 14]
0: Plant response rating, Barnyardgrass [4, 14] | Plant response rating, Wheat [7, 14] | Plant response rating, Wheat [7, 15] | Plant response rating, Corn (corn (Zea mays); [14]) | Plant response rating, Corn (corn (Zea mays); [15]) | Plant response rating, Canarygrass [8, 16] | Canarygrass plant response rating (0 to 100 scale) [8, 17] | Plant response rating, Canarygrass [8, 18] | Plant response rating, Windgrass [9, 16] | Windgrass plant response rating (0 to 100 scale) [9, 17] | Plant response rating, Barley [10, 16]

O=C1CCCC(O)=C1C(=O)c1cnc(-c2ccccc2Br)n(-c2ccccc2)c1=O [Compound 71]
100: Plant response rating, Morningglory [1, 13] | Plant response rating, Pigweed [2, 13] | Velvetleaf plant response rating [6, 12] | Plant response rating, Velvetleaf [6, 13]
70: Pigweed plant response rating [2, 12] | Plant response rating, Velvetleaf [6, 15]
50: Plant response rating, Crabgrass, Large [3, 15] | Plant response rating, Velvetleaf [6, 14]
80: Morningglory plant response rating [1, 12] | Plant response rating, Crabgrass, Large [3, 13]
20: Foxtail, Giant plant response rating [5, 12] | Plant response rating, Corn (corn (Zea mays); [13]) | Plant response rating, Canarygrass [8, 19]
5: Canarygrass plant response rating (0 to 100 scale) [8, 17] | Plant response rating, Canarygrass [8, 18] | Plant response rating, Windgrass [9, 16] | Plant response rating, Barley [10, 19]
90: Plant response rating, Pigweed [2, 15] | Chickweed plant response rating (0 to 100 scale) [11, 17]
0: Plant response rating, Morningglory [1, 14] | Plant response rating, Morningglory [1, 15] | Barnyardgrass plant response rating [4, 12] | Plant response rating, Barnyardgrass [4, 14] | Plant response rating, Barnyardgrass [4, 15] | Plant response rating, Foxtail, Giant [5, 14] | Wheat plant response rating [7, 12] | Plant response rating, Wheat [7, 13] | Plant response rating, Wheat [7, 14] | Plant response rating, Wheat [7, 15] | Corn plant response rating (corn (Zea mays); [12]) | Plant response rating, Corn (corn (Zea mays); [14]) | Plant response rating, Corn (corn (Zea mays); [15]) | Plant response rating, Canarygrass [8, 16] | Plant response rating, Barley [10, 16] | Barley plant response rating (0 to 100 scale) [10, 17] | Plant response rating, Barley [10, 18]
60: Plant response rating, Barnyardgrass [4, 13] | Plant response rating, Foxtail, Giant [5, 13] | Plant response rating, Windgrass [9, 19]
45: Plant response rating, Windgrass [9, 18]
98: Plant response rating, Chickweed [11, 19]
95: Plant response rating, Chickweed [11, 18]
30: Crabgrass, Large plant response rating [3, 12]
75: Plant response rating, Chickweed [11, 16]
10: Plant response rating, Crabgrass, Large [3, 14] | Plant response rating, Foxtail, Giant [5, 15] | Windgrass plant response rating (0 to 100 scale) [9, 17]
